Experimental data reported in patent publication US20080318943A1, “Compounds and Uses Thereof - 848” (ASTRAZENECA AB, priority 2007, published 2008).

Assay: EEG protocol (Method JJ), spontaneous EEG in behaving rats
Assay type: in vivo, Sprague Dawley rats
Source text: In another embodiment, certain compounds of the invention may be useful in treating schizophrenia. In a particular embodiment, certain compounds of the invention may be useful in treating cognitive disorders associated with schizophrenia. The existing non-selective GABAergic agents are generally not suitable for treating information/cognitive processing deficits in schizophrenia due to the unacceptable competing side effects, such as overt sedation and memory impairment. Certain compounds of the invention are capable of selective modification of function at the specific GABAergic synapses affected by the schizophrenic disease state. Therefore, these certain compounds of the invention acting selectively at GABAA α2 subunits may be used for treating cognitive deficits in schizophrenia.
Subjects: Sprague Dawley rats weighing 300-400 g at time of surgery are used as subjects. Rats are maintained>1 week in AstraZeneca vivarium prior to surgical procedures. Rats are housed singly, maintained on a 12:12 light:dark cycle, and fed and watered ad lib for a period of>14 days following surgery. […]
During compound testing sessions, animals are initially allowed to re-acclimate to the operant chamber for 10-20′ minutes prior to a 30-minute baseline session in which performance and EEG are continuously monitored. […]

SMILES	spontaneous EEG across a range of oscillation frequencies	spontaneous EEG at gamma frequencies
O=C1Nc2ccc(Cl)cc2C(c2ccccc2Cl)=NC1O (centres unmarked) [Lorazepam]	broad changes	
Cc1ccc(-c2nc3ccc(C)cn3c2CC(=O)N(C)C)cc1 [zolpidem]		no significant increase
